Read-outs that look alike come from different tables or passages of the source.
Legend:
[1] = Drug loading in magnetic nanoparticles; format: physicochemical; conditions: for Total Drug Loading (Mean ± SEM): total drug added 10.0 % w/w, n = 2 or 3
Procedure: For incorporation in nanoparticles, hydrochloride salt of the drug (DOX.HCl) was converted to water-insoluble base (DOX) using established methods (Yolles, et al. (1978) Acta Pharm. Suec. 15:382-388). […] Stirring was continued overnight (˜16 hours) to allow partitioning of the drug into the oleic acid shell surrounding iron-oxide nanoparticles. Drug-loaded nanoparticles were separated from the unentrapped drug using a magnet (12200 Gauss; Edmund Scientific, Tonawanda, N.Y.). Nanoparticles were washed twice by re-suspending in distilled water and separated using a magnetic field. […] For drug extraction, 2 mL of 12.5% volume/volume methanolic solution in chloroform was added to the dried sample. The samples were shaken for 24 hours (Environ shaker, model no. 3527; Lab-Line Instruments, Melrose Park, Ill.). Since DOX has greater solubility in this combination of solvents than in methanol or chloroform alone, it was used for the extraction. Nanoparticles were centrifuged for 10 minutes at 16,000 g using an EPPENDORF® microcentrifuge (5417R; Eppendorf-Netheler-Hinz-GmbH, Hamburg, Germany). […] VARIAN® Inc., Walnut Creek, Calif.) at λex=485 nm and λem=591 nm. A standard plot was prepared under identical conditions to calculate the amount of drug loaded in the nanoparticles. There was no further increase in the amount of drug extracted when nanoparticles were kept for extraction for more than 24 hours. […] The cap was removed and ethanol was allowed to evaporate overnight. Magnetite nanoparticles were separated from the free drug using a magnetic field and particles were washed two times with distilled water.

MCF-7 cells = test: Confocal laser scanning microscopy of drug uptake and localization; format: cell-based; conditions: 2 hours of incubation
Procedure: MCF-7 cells were seeded in Bioptechs plates (Bioptechs, Butler, Pa.) at 50,000 cells/plate in 1 mL serum-containing medium 24 hours prior to the experiment. A dispersion of drug-loaded or void nanoparticles and drug solution (10 μM) were prepared in cell-culture medium as described herein. […] Cells were washed three times with PBS before imaging them under a confocal microscope (Zeiss Confocal microscope LSM410 equipped with argon-krypton laser; Zeiss, Thornwood, N.Y.) at λex=488 nm and a long-pass filter with a cut-on filter of 515 nm for detecting the emission light.

[2] = Antiproliferative IC50 of paclitaxel, doxorubicin and combination, in solution or in magnetic nanoparticles

COc1cccc2c1C(=O)c1c(O)c3c(c(O)c1C2=O)C[C@@](O)(C(=O)CO)C[C@@H]3O[C@H]1C[C@H](N)[C@H](O)[C@H](C)O1 [Doxorubicin]
Doxorubicin Loaded ([1]; added doxorubicin 5.0 % w/w + paclitaxel 5.0 % w/w): 3.7 % w/w | Doxorubicin Loaded ([1]; added doxorubicin 10.0 % w/w, paclitaxel 0.0): 8.2 % w/w | Total Drug Loading (Mean ± SEM) [1]: 8.2 % w/w | intracellular localization of drug (MCF-7 cells): nuclear localization | IC50 ([2]; read-out: IC50 Nanoparticle): 0.795 ± 0.177 µg/mL | IC50 ([2]; read-out: IC50 Soluble): 0.103 ± 0.0178 µg/mL

CC(=O)O[C@H]1C(=O)[C@@]2(C)[C@H]([C@H](OC(=O)c3ccccc3)[C@]3(O)C[C@H](OC(=O)[C@H](O)[C@@H](NC(=O)c4ccccc4)c4ccccc4)C(C)=C1C3(C)C)[C@]1(OC(C)=O)CO[C@@H]1C[C@@H]2O [Paclitaxel]
Paclitaxel Loaded ([1]; added paclitaxel 5.0 % w/w + doxorubicin 5.0 % w/w): 4.8 % w/w | Paclitaxel Loaded ([1]; added paclitaxel 10.0 % w/w, doxorubicin 0.0): 9.5 % w/w | Total Drug Loading (Mean ± SEM) [1]: 9.5 % w/w | IC50 ([2]; read-out: IC50 Nanoparticle): 0.0106 ± 0.0006 µg/mL | IC50 ([2]; read-out: IC50 Soluble): 0.0098 ± 0.0005 µg/mL

— patent publication US20070264199A1, “Magnetic nanoparticle composition and methods for using the same” (priority 2005, published 2007)
